# Source: US8946299B2, “Use of calixarenes associated with an antibiotic in the treatment of bacterial infections” (Universite de Lorraine, priority 2011, dated 2015)
# Key:
# [1] = system: EcR1: Penicillinase-Producing Escherichia coli without Associated Resistance; experiment: Antibiogram by the disk diffusion technique; type: cell-based; settings: for Results (diameter): Table A1, category from diameter vs Dmin Dmax; for diameter in mm: Table A2, diameter
# Description: (§1) 5. Identification and Antibiogram 5.1 EcR1: Penicillinase-Producing Escherichia coli without Associated Resistance
# (§2) The bacterial and antibiogram identification is carried out by the VITEK 2 system (bioMérieux) and by the disk diffusion technique.
# [2] = system: EcR1: Penicillinase-Producing Escherichia coli without Associated Resistance; experiment: Antibiogram, MIC by the VITEK 2 system; type: cell-based; settings: Table A1, category from MIC
# Description: as §1, §2
# [3] = system: Pseudomonas aeruginosa strain having a resistance to β-lactams, the trimethoprim-sulphamethoxazole combination and fosfomycin (PaR2); type: cell-based; settings: antibiotic used alone; second figure of the cell; n = 4
# Text: (§3) Three reference strains were used, corresponding to those studied for the MICs and MBCs (Minimum Bactericidal Concentration): Escherichia coli ATCC 25922, Staphylococcus aureus ATCC 29213, Pseudomonas aeruginosa ATCC 27853. For each of these strains 3 corresponding clinical isolates were chosen, having various antibiotic-resistance profiles, routinely used in standard fashion: • EcR1, EcR2, EcR3; • SaR1, SaR3, SaR4; • PaR2, PaR3, PaR5.
# (§4) 1.3. Procedure: Chessboard Technique
# (§5) The bacterial suspension is transferred to a 15 mL Falcon tube, centrifuged for 10 min at 4500 g, then the pellet is re-suspended in 1 mL of sterile distilled water. Suitable dilutions are then prepared in order to obtain a bacterial inoculum between 5·10^5 and 5·10^6 CFU/mL.
# (§6) The MICs of the antibiotics were previously determined for each strain, by the method of microdilution in a liquid medium (CLSI (Clinical and Laboratory Standards Institute), 2003).
# (§7) The same procedure is followed for the Cx1. […] Thus 64 ATB/Cx1 combinations are obtained.
# (§8) The final volume contained in each of the wells must be 100 μL. Two controls must be present on each plate: • column 1 and 12: medium control • column 2 and 11: medium+bacteria control
# (§9) Cx1: […] in the wells of […], starting with the lowest concentration.
# (§10) ATB: 25 μL in the wells of rows H to A (columns 3 to 11), starting with the lowest concentration.
# (§11) 50 μL in each of the wells of columns 2 to 11.
# (§12) D2: Reading the Turbidity at 540 Nm.
# (§13) The FIC (Fractional Inhibitory Concentration Index) value is determined by the following formula:
# (§14) [formula] MICA in combination MICA alone MICB in combination MICB alone
# (§15) When FIC≦0.5, there is a synergistic effect between antibiotic A and antibiotic B.
# (§16) When 0.5<FIC≦1, there is an additive effect between antibiotic A and antibiotic B.
# (§17) When 1<FIC≦4, there is an indifferent effect between antibiotic A and antibiotic B.
# (§18) When FIC>4, there is an antagonistic effect between antibiotic A and antibiotic B.
# (§19) For each strain and each antibiotic/Cx1 combination, the experiments were repeated a minimum of 3 times.
# [4] = system: Staphylococcus aureus strain ATCC 29213 (wild type); experiment: Chessboard technique: MICs alone and synergism of Cx1 combinations; type: cell-based; settings: antibiotic used alone; second figure of the cell; n = 4
# Text: as §3, §4, §5, §6, §7, §8, §9, §10, §11, §12, §13, §14, §15, §16, §17, §18, §19
# [5] = system: Pseudomonas aeruginosa strain having a resistance to β-lactams (including the carbapenems), aminoglycosides, the trimethoprim-sulphamethoxazole combination and …; experiment: as above; type: cell-based; settings: antibiotic used alone; second figure of the cell; n = 4
# Text: as §3, §4, §5, §6, §7, §8, §9, §10, §11, §12, §13, §14, §15, §16, §17, §18, §19
# [6] = system: Pseudomonas aeruginosa strain ATCC 27853 (wild type); experiment: as above; type: cell-based; settings: antibiotic used alone; second figure of the cell; n = 4
# Text: as §3, §4, §5, §6, §7, §8, §9, §10, §11, §12, §13, §14, §15, §16, §17, §18, §19
# [7] = system: ESBL-producing strain of Escherichia coli (EcR3); experiment: as above; type: cell-based; settings: antibiotic used alone; second figure of the cell; n = 4
# Text: as §3, §4, §5, §6, §7, §8, §9, §10, §11, §12, §13, §14, §15, §16, §17, §18, §19
# [8] = system: mucoid strain of Pseudomonas aeruginosa having a resistance to rifampicin and the trimethoprim-sulphamethoxazole combination (PaR5); experiment: as above; type: cell-based; settings: antibiotic used alone; second figure of the cell; n = 4
# Text: as §3, §4, §5, §6, §7, §8, §9, §10, §11, §12, §13, §14, §15, §16, §17, §18, §19
# [9] = system: Escherichia coli strain ATCC 25922 (wild type); experiment: as above; type: cell-based; settings: antibiotic used alone; second figure of the cell; n = 4
# Text: as §3, §4, §5, §6, §7, §8, §9, §10, §11, §12, §13, §14, §15, §16, §17, §18, §19
# [10] = system: cephalosporinase-hyperproducing strain of Escherichia coli (EcR2); experiment: as above; type: cell-based; settings: antibiotic used alone; second figure of the cell; n = 4
# Text: as §3, §4, §5, §6, §7, §8, §9, §10, §11, §12, §13, §14, §15, §16, §17, §18, §19
# [11] = system: MRSA strain without associated resistance (SaR1); experiment: as above; type: cell-based, Staphylococcus aureus; settings: antibiotic used alone; second figure of the cell; n = 4
# Text: as §3, §4, §5, §6, §7, §8, §9, §10, §11, §12, §13, §14, §15, §16, §17, §18, §19
# [12] = system: MRSA strain having a resistance to the aminoglycosides, fluoroquinolones, macrolides-lincosamides-synergistins and ofloxacin (SaR4); experiment: as above; type: cell-based, Staphylococcus aureus; settings: antibiotic used alone; second figure of the cell; n = 4
# Text: as §3, §4, §5, §6, §7, §8, §9, §10, §11, §12, §13, §14, §15, §16, §17, §18, §19
# [13] = system: MRSA strain having a resistance to the aminoglycosides and fluoroquinolones (SaR3); experiment: as above; type: cell-based, Staphylococcus aureus; settings: antibiotic used alone; second figure of the cell; n = 4
# Text: as §3, §4, §5, §6, §7, §8, §9, §10, §11, §12, §13, §14, §15, §16, §17, §18, §19
# [14] = system: Escherichia coli, Staphylococcus aureus and Pseudomonas aeruginosa strains; experiment: Chessboard technique, summary over all strains and combinations tested; type: cell-based
# Text: as §3, §4
# The FIC (Fractional Inhibitory Concentration Index) value is determined by the following formula: […]
# as §19
# [15] = system: penicillinase-producing strain of Escherichia coli without associated resistance (EcR1); experiment: Chessboard technique: MICs alone and synergism of Cx1 combinations; type: cell-based; settings: antibiotic used alone; second figure of the cell; n = 4
# Text: as §3, §4, §5, §6, §7, §8, §9, §10, §11, §12, §13, §14, §15, §16, §17, §18, §19
smiles,measurement,setting,value
NCC[C@H](O)C(=O)N[C@@H]1C[C@H](N)[C@@H](O[C@H]2O[C@H](CN)[C@@H](O)[C@H](O)[C@H]2O)[C@H](O)[C@H]1O[C@H]1O[C@H](CO)[C@@H](O)[C@H](N)[C@H]1O [Amikacin],Results (diameter),[1],Susceptible
same,Results (MIC),[2],Susceptible
same,MIC (antibiotic),[3],1 µg/mL
same,Initials MIC (antibiotic),[4],1 mg/L
same,MIC (antibiotic),[5],1 mg/L
same,MIC (antibiotic),[6],0.5 µg/mL
same,Initial MICs (antibiotic),[7],1 mg/L
same,MIC (antibiotic),[8],0.5 µg/mL
CC1(C)S[C@@H]2[C@H](NC(=O)[C@H](N)c3ccc(O)cc3)C(=O)N2[C@H]1C(=O)O [Amoxicillin],Results (diameter),[1],Resistant
same,Results (MIC),[2],Resistant
same,Initial MICs (antibiotic),[9],4/4 mg/L
same,Initial MICs (antibiotic),[10],256 mg/L
C[C@H]1[C@H](NC(=O)/C(=N\OC(C)(C)C(=O)O)c2csc(N)n2)C(=O)N1S(=O)(=O)O [Aztreonam],Results (diameter),[1],Susceptible
same,diameter in mm,[1],28 mm
"CC(=O)OCC1=C(C(=O)O)N2C(=O)[C@@H](NC(=O)Cc3cccs3)[C@H]2SC1 [C1G, Cefalotine]",Results (diameter),[1],Intermediate
same,Results (MIC),[2],Susceptible
CO/N=C(\C(=O)N[C@@H]1C(=O)N2C(C(=O)[O-])=C(C[N+]3(C)CCCC3)CS[C@H]12)c1csc(N)n1 [Cefepime],Results (diameter),[1],Susceptible
same,diameter in mm,[1],27 mm
O=C(O)c1cn(C2CC2)c2cc(N3CCNCC3)c(F)cc2c1=O [Ciprofloxacin],Results (diameter),[1],Susceptible
C[C@@H]1O[C@@H]1P(=O)(O)O [Fosfomycin],Results (diameter),[1],Susceptible
same,diameter in mm,[1],24 mm
same,MIC (antibiotic),[11],2 µg/mL
same,MIC (antibiotic),[12],128 µg/mL
same,MIC (antibiotic),[13],16 mg/L
same,nature of the interaction between Cx1 and the antibiotic,[14],synergism
same,MIC (antibiotic),[3],64 µg/mL
same,Initials MIC (antibiotic),[4],8/8 mg/L
same,MIC (antibiotic),[5],> 64 mg/L
same,MIC (antibiotic),[6],16 µg/mL
same,MIC (antibiotic),[8],16 µg/mL
CC(=O)O[C@H]1C[C@@]2(C)[C@@H](C[C@@H](O)[C@H]3[C@@]4(C)CC[C@@H](O)[C@@H](C)[C@@H]4CC[C@@]32C)/C1=C(\CCC=C(C)C)C(=O)O [Fusidic acid],MIC (antibiotic),[12],4 µg/mL
same,nature of the interaction between Cx1 and the antibiotic,[14],synergism
same,Initials MIC (antibiotic),[4],2 mg/L
C[C@@H](O)[C@H]1C(=O)N2C(C(=O)O)=C(SCCN=CN)C[C@H]12 [Imipenem],MIC (antibiotic),[12],2 µg/mL
same,MIC (antibiotic),[3],2 µg/mL
same,MIC (antibiotic),[5],32/32 mg/L
same,MIC (antibiotic),[6],2 µg/mL
same,MIC (antibiotic),[8],2 µg/mL
C[C@H]1COc2c(N3CCN(C)CC3)c(F)cc3c(=O)c(C(=O)O)cn1c23 [Levofloxacin],MIC (antibiotic),[13],8/8 mg/L
CC(=O)NC[C@H]1CN(c2ccc(N3CCOCC3)c(F)c2)C(=O)O1 [Linezolid],MIC (antibiotic),[11],2 µg/mL
same,MIC (antibiotic),[12],2 µg/mL
same,MIC (antibiotic),[13],2 mg/L
same,Initials MIC (antibiotic),[4],2 mg/L
CN(C)c1ccc(O)c2c1C[C@H]1C[C@H]3[C@H](N(C)C)C(O)=C(C(N)=O)C(=O)[C@@]3(O)C(O)=C1C2=O [Minocycline],diameter in mm,[1],20 mm
CCn1cc(C(=O)O)c(=O)c2ccc(C)nc21 [Nalidixic acid],Results (MIC),[2],Susceptible
CCN[C@@H]1C[C@H](N)[C@@H](O[C@H]2OC(CN)=CC[C@H]2N)[C@H](O)[C@H]1O[C@H]1OC[C@](C)(O)[C@H](NC)[C@H]1O [Netilmicin],Results (diameter),[1],Susceptible
same,Results (MIC),[2],Susceptible
CCn1cc(C(=O)O)c(=O)c2cc(F)c(N3CCNCC3)cc21 [Norfloxacin],Results (MIC),[2],Susceptible
CCN1CCN(C(=O)N[C@@H](C(=O)N[C@@H]2C(=O)N3[C@@H]2SC(C)(C)[C@@H]3C(=O)O)c2ccccc2)C(=O)C1=O [Piperacillin],Results (diameter),[1],Intermediate
same,Results (MIC),[2],Susceptible
same,Initial MICs (antibiotic),[15],256 mg/L
same,Initial MICs (antibiotic),[7],128 mg/L
same,Initial MICs (antibiotic),[9],2 mg/L
same,Initial MICs (antibiotic),[10],32 mg/L
CO[C@H]1/C=C/O[C@@]2(C)Oc3c(C)c(O)c4c(O)c(c(/C=N/N5CCN(C)CC5)c(O)c4c3C2=O)NC(=O)/C(C)=C\C=C\[C@H](C)[C@H](O)[C@@H](C)[C@@H](O)[C@@H](C)[C@H](OC(C)=O)[C@@H]1C [Rifampicin],diameter in mm,[1],16 mm
same,MIC (antibiotic),[3],64 µg/mL
same,Initial MICs (antibiotic),[15],4 mg/L
same,MIC (antibiotic),[5],32/32 mg/L
same,MIC (antibiotic),[6],64 µg/mL
same,Initial MICs (antibiotic),[7],4 mg/L
same,Initial MICs (antibiotic),[9],4/4 mg/L
same,Initial MICs (antibiotic),[10],2/2 mg/L
same,MIC (antibiotic),[8],16 µg/mL
[H]/N=C(/N)N[C@H]1[C@H](O)[C@@H](O)[C@H](O[C@@H]2O[C@@H](C)[C@](O)(C=O)[C@H]2O[C@@H]2O[C@@H](CO)[C@H](O)[C@@H](O)[C@@H]2NC)[C@@H](N/C(N)=N\[H])[C@@H]1O [Streptomycin],MIC (antibiotic),[11],4 µg/mL
same,MIC (antibiotic),[12],4 µg/mL
same,MIC (antibiotic),[13],4 mg/L
same,nature of the interaction between Cx1 and the antibiotic,[14],synergism
same,Initials MIC (antibiotic),[4],4 mg/L
CC1(C)S[C@@H]2[C@H](NC(=O)[C@H](C(=O)O)c3ccsc3)C(=O)N2[C@H]1C(=O)O [Ticarcillin],Results (diameter),[1],Resistant
same,Results (MIC),[2],Resistant
CN(C)c1cc(NC(=O)CNC(C)(C)C)c(O)c2c1C[C@H]1C[C@H]3[C@H](N(C)C)C(O)=C(C(N)=O)C(=O)[C@@]3(O)C(O)=C1C2=O [Tigecycline],nature of the interaction between Cx1 and the antibiotic,[14],synergism
